From patent US20240336571A1, “NOVEL CYCLOPROPYL COMPOUNDS” (ICAGEN, LLC, priority 2021, published 2024) come the findings set out here.

This assay addresses human Kv7.2 (Homo sapiens (Human), UniProt O43526). In words: SyncroPatch 384 electrophysiology, activation of Kv7.2 in CHO cells. It counts as cell-based. Conditions: for EC50: CHO cells stably expressing human Kv7.2, potassium current at -90 mV repolarizing step, in presence of zinc pyrithione; for Emax: CHO, Kv7.2 activation max %, relative to 30 μM ML-213 max activation. How it is done:
The potency of Kv7 potentiators was determined using the SyncroPatch 384 (Nanion) high throughput electrophysiology platform.
CHO cells stably expressing either human Kv7.2, Kv7.4 or Kv7.5/7.3 under a constitutive CMV promoter were used for these studies. Cells were maintained in F12 Hams+1 mM L-glutamine (Hyclone) supplemented with 10% FBS (Sigma), 0.3×NEAA (Non-essential Gamino-acids) and 400 ug/ml G418 at 37° C. in 5% CO2. Cells were cultured in T-225 flasks (Nunc) for 2-3 days to reach 85-95% confluence prior to electrophysiological recording.
Earle's balanced salt solution (in mM): 135 NaCl, 5.4 KCl, 5 Glucose, 2 CaCl2, 1 MgCl2, 5 HEPES, pH 7.4. Seal enhancer solution (in mM): 90 NaCl, 3 KCl, 35 CaCl2, 10 MgCl2, 10 HEPES, pH 7.4. Extracellular recording solution (in mM): 71 NaCl, 70 NMDG, 13 KCl, 5 Glucose, 2 CaCl2, 1 MgCl2, 10 HEPES, pH 7.4. Intracellular recording solution (in mM): 130 KF, 20 KCl, 4 EGTA, 10 HEPES, 2 EDTA, 0.01 Escin, pH 7.2.
Cells were harvested for electrophysiological recording upon reaching appropriate confluence. Cells were first washed in DPBS (Hyclone, Cat #SH30028.03) and then 2 ml of Accutase (MP Biomedicals #1000449) was added at 28° C. until ˜90% of cells were suspended. F12 HAM's media+1 mM L-glutamine (Hyclone, SH30026.02) was then added to the flask to dilute the accutase. Cells were then triturated until a single cell suspension was achieved, a cell count was performed, and cells were centrifuged for 2 min. at 1,000 rpm. Media was then aspirated, and cells were resuspended in Earle's balanced salt solution to a concentration of 0.75×10^6 cells/ml and allowed to recover for 25 min at 10° C.
At the beginning of each assay, 20 μl of cell suspension was dispensed into each well of a multi-hole 384-well SyncroPatch chip by the onboard pipettor. Cell sealing was initiated, and seal enhancer solution was added to facilitate seal formation. Upon completion of sealing, cells were washed 3 times with extracellular recording solution and the assay voltage protocol was started. Human Kv7.2, Kv7.4 or Kv7.5/7.3 channels were evaluated using a voltage protocol in which cells were voltage-clamped at a holding potential of −60 mV. Potassium currents were continuously activated with a series of three voltage steps to −30 mV for 3 seconds, 40 mV for 1 second and −90 mV for 4 seconds with 12 seconds between successive voltage sweeps. Potassium currents were measured from the −90 mV repolarizing step. Baseline current was assessed for 3.5 minutes prior to the addition of 5.6 μM zinc pyrithione (1 μM for Kv7.4). Kv7.2, Kv7.4 or Kv7.5/7.3 current in the presence of zinc pyrithione was acquired over five minutes to allow channels to reach steady state activity prior to addition of test agents. Channel activity was monitored for three minutes preceding the addition of 30 μM ML-213 (3 minutes) to achieve maximum activation. 150 mM TEA with 10 μM XE-991 was applied for 2 minutes to measure the leak current during maximum inhibition of Kv7.2, Kv7.4 or Kv7.5/7.3 channels.
Data were collected on the SyncroPatch platform using PatchControl software (Nanion) and processed and analyzed using DataControl Software (Nanion). Percent activation was calculated from potassium current as follows: The average current for the 5 sweeps in the presence of zinc pyrithione immediately preceding test agent addition was taken as the ‘control’ data. Likewise, the average potassium current in the presence of test agents 5 sweeps immediately preceding addition of 30 μM ML-213 was determined for ‘drug’ data. The average potassium current 5 sweeps immediately prior to addition of 150 mM TEA+10 μM XE-991 was determined for ‘max activation’ data while average currents from 5 sweeps immediately following addition of TEA was determined for ‘max inhibition’ data. Percent activation for each of the 384-wells of a sealchip was calculated as ((‘drug’−‘max inhibition’)/(‘max activation’−‘max inhibition’))*100 with Pipeline Pilot (Accelrys). […]

One may read the EC50 as the concentration that produces a half-maximal response. Usually Emax stands for the size of the effect at its maximum, as opposed to the concentration needed. In the case of `N#Cc1cc(CNC(=O)N[C@@H]2C[C@H]2c2ccccc2)ccn1` (racemic) [Example 8, 1-[(2-cyanopyridin-4-yl)methyl]-3-[rac-(1R,2S)-2-phenylcyclopropyl]urea], the EC50 was determined as 4180 nM and the maximal effect (Emax) came out at 40%.
With `O=C(NCc1ccnc(OC(F)F)c1)N[C@@H]1C[C@H]1c1ccccc1` [Example 7, 1-[[2-(difluoromethoxy)pyridin-4-yl]methyl]-3-[(1R,2S)-2-phenylcyclopropyl]urea], the EC50 turned out to be 100 nM and the maximum response (Emax) was determined as 71%.
The like results for `O=C(NCc1ccnc(OC2CCOCC2)c1)NC1CC1C1CCCCC1` (stereo not drawn) [Example 45, 1-(2-cyclohexylcyclopropyl)-3-[[2-(oxan-4-yloxy)pyridin-4-yl]methyl]urea] were, in that order, 880 nM and 77%.
